Consider 5 compounds from patent US20250241944A1 (CALIFORNIA INSTITUTE OF TECHNOLOGY, priority 2023, published 2025).

Entries after “also recorded” stand apart in the source; their conditions may differ. Where two headings read alike, the source gives them in different places.

In data set [1] the test system is WT Pseudomonas aeruginosa UCBPP-PA14. Description: Antibiotic treatment assay with viable plate counts (percent survival / log killing). To be noted: for log killing: OD500=2, chlorate 10 mM, tobramycin 31.25 μg/mL.
Data set [2] has as its system RPA-infected chronic wounds.
Procedure: A diabetic mouse model (db/db−/−) of chronic wounds that mimics chronic wounds in humans was used to investigate wound healing.
Wounds were treated daily between 10 and 40 days postwounding.
The quality of wound healing in treated mice was characterized by performing histological and immunofluorescence analyses on day 40 wounds (FIG. 18 Panel A).
To distinguish between and visualize the distribution of collagen I and collagen III in the granulation tissue, the wounds were also stained with Picrosirius Red (PSR). […] Collagen IV immunolabeling was used to show whether basal lamina under the epidermis was present, an important indicator of proper connectivity of the epithelium with the underlying dermis. […] Keratin 14/16 is a cytokeratin found in proliferating keratinocytes of the epidermis and is observed in the cytoplasm surrounding the nucleus.
Blood vessel development during wound healing is another indicator of proper healing. The number of microvessels present in the granulation tissue was quantified by immunolabeling the wound tissue with a-smooth muscle actin (aSMA), a protein that is present in the cells surrounding blood vessels.
Data set [3] deals with RPA-infected chronic wounds. To be noted: diabetic mouse model, reference [227]; cited from earlier work.
In a further data set the test system is P. aeruginosa biofilms. Conditions: via Nar activity, reference [32]; cited from earlier work.
Data set [4] has as its system RPA Anar strain (AnarGHJI). To be noted: 24 h.
Procedure: (§1) All experiments used Luria-Bertani (LB; Difco) as the growth medium, supplemented with KNO3 as specified. Aerobic liquid cultures were incubated at 37° C. with shaking at 250 RPM. Anaerobic work was conducted in an anaerobic glove box with a 95% N2-5% H2 atmosphere, and anaerobic cultures were incubated at 37° C.
For in vitro planktonic drug treatment studies, overnight RPA cultures were grown aerobically in LB broth supplemented with 40 mM KNO3. […] Cell resuspensions were added to 96-well plates (150 μL per well), and one 96-well plate was incubated statically (not shaking) at 37° C. at ambient oxygen, while a duplicate 96-well plate was incubated statically at 37° C. under anoxia (anaerobic glove box). Drug treatments were incubated for 24 h, after which cultures were serially diluted for viable cell counts. Viable cell counts were performed by serially diluting samples in phosphate-buffered saline (PBS). […] After incubation at 37° C., colonies were counted to quantify colony-forming units (CFU) per milliliter for each culture. Percent survival was calculated for each condition by dividing CFU/mL values from a drug treated sample by the average CFU/mL value from control (no drug) samples and multiplying by 100. […]
For in vitro biofilm drug studies, agar block biofilm assays (ABBAs) were used. […] Viable cell counts and percent survival were calculated for ABBA samples as described above.
Data set [5] relates to RPA (Riverside Pseudomonas aeruginosa) planktonic cultures. Kind of data set: In vitro planktonic drug treatment, viable cell counts. Format: cell-based. To be noted: 24 h, ciprofloxacin 10 μg/mL, sodium chlorate 10 mM.
The conditions of data set [6]: humans; cited from earlier work.
The conditions of data set [7]: mammals lack Nar; cited from earlier work.
In another data set the test system is RPA aggregate biofilms. To be noted: ABBA, 24 h; final 10 μg/mL ciprofloxacin, 10 mM sodium chlorate.
Setting [8] is: 24 h, hypoxic vs oxic conditions.
Setting [9] is: five drugs of the study, hypoxic cultures.
Setting [10] is: hypoxic conditions (static), 24 h, ciprofloxacin 1 μg/mL, ceftazidime 10 μg/mL.

Procedure for RPA aggregate biofilms: as §1
For in vitro biofilm drug studies, agar block biofilm assays (ABBAs) were used. Briefly, to set up ABBA, overnight RPA cultures were diluted to OD500=0.001 into cooled molten agar (44° C.) composed of LB with 5 mM KNO3 and 1% agar. Before the agar solidified, 500 μL of the cell-agar suspension was added to 2-mL Eppendorf tubes, after which samples were allowed to solidify. Eppendorf tubes were incubated at 37° C. for 24 h to allow cells to grow as aggregate biofilms suspended within the agar medium. After this growth incubation, ABBA samples were washed twice with 200 μL of PBS to remove cell growth that was not suspended within the agar. […] Drug treatments were incubated for 24 h at 37° C. To determine viable cell counts, ABBA samples were first homogenized by adding 300 μL of PBS to each sample and homogenizing on speed 3 with a Bio-Gen PRO200 Homogenizer (PRO Scientific).

For colistin, the “P. aeruginosa viability after colistin combined with tobramycin, ciprofloxacin or ceftazidime” value in data set [1] was “below our detection limit”. For the same compound, the “O2-dependence of efficacy (hypoxic compared to oxic)” value in data set [1] (setting [8]) is given as “only marginally less effective at killing hypoxic cultures”. In [1] (setting [9]), the “capacity for synergy across drug classes” value is listed as “wide-ranging synergistic interactions; also recorded: broad capacity for synergy”. Moreover, in data set [1] (hypoxic conditions, 24 h), the “synergy in antibiotic-antibiotic combinations” value is listed as “displays synergistic interactions; also recorded: synergized” and the “synergy of chlorate-antibiotic combination” value is “synergizing”.
As to `[O-][Cl+2]([O-])O` [chlorate, sodium chlorate], in data set [2] (day 40), the “effectiveness at promoting wound healing, comparison between treatments” value is listed as “as effective as ciprofloxacin”. The “PSR staining: collagen I and collagen III in the granulation tissue” value in data set [2] (day 40 healed wounds) was “staining of both collagen I and collagen III”. Further, the “collagen IV immunolabeling: basement membrane under the epithelium” value in data set [2] (day 40 healed wounds) was “formed a basement membrane”. Further, the “aSMA immunolabeling: microvessels in the granulation tissue” value in data set [2] (day 40 wounds) is listed as “showed microvessels”. Moreover, the “quality of the wound tissue” value in [2] (day 40 wounds, histology) is “significantly improved”. In addition, the “healing of P. aeruginosa-infected chronic wounds by topical treatment” value in [3] was “supports the healing”. In addition, in the data set on P. aeruginosa biofilms, the “killing of O2-limited, antibiotic-tolerant biofilm populations” value was “kills”. The “susceptibility of Nar-lacking strain (in words)” value in [4] is recorded as “highly resistant”. The “susceptibility of planktonic cultures (in words)” value is recorded as “highly susceptible” in data set [5] (anoxic (anaerobic glove box)) and “highly tolerant” in data set [5] (oxic (static, ambient oxygen)). Also, the “estimated lethal oral dose” value in data set [6] is 20-35 grams. The log killing in [1] (anoxic conditions (anaerobic glove box), 24 h) was about 2.5 log; in data set [1] (setting [10]) it was 0.2 log. Also, the “toxicity / killing of P. aeruginosa cultures (in words)” value in data set [1] (anoxic conditions, 24 h) is on record as “most effective; also recorded: some toxicity”; in [1] (anoxic conditions, 24 h, listed as Chlorate), “most toxic”; in data set [1] (hypoxic conditions, 24 h) it was “little-to-no killing; also recorded: remain viable”; in data set [1] (hypoxic conditions, 24 h, listed as Chlorate), “nontoxic”; in data set [1] (oxic conditions, 24 h) it was “nontoxic”. For the same compound, the “capacity for synergy across drug classes” value in data set [1] (setting [9]) is on record as “wide-ranging synergistic interactions; also recorded: broad capacity for synergy”. In addition, the toxicity against mammals result in data set [7] is reported as “low toxicity”.
As for `CC(C)(O/N=C(\C(=O)N[C@@H]1C(=O)N2C(C(=O)[O-])=C(C[n+]3ccccc3)CS[C@H]12)c1csc(N)n1)C(=O)O` [ceftazidime], in data set [1], the “O2-dependence of efficacy (hypoxic compared to oxic)” value is listed as “does not exhibit O2-dependent efficacy” and the “reduction of the effective (lethal, toxic) ceftazidime dose by chlorate addition” value is over 100 fold. For the same compound, in [1] (setting [9]), the “capacity for synergy across drug classes” value is reported as “do not”. Moreover, in data set [1] (hypoxic conditions, 24 h), the “synergy of chlorate-antibiotic combination” value was “synergizing” and the “toxicity / killing of P. aeruginosa cultures (in words)” value is recorded as “completely resistant; also recorded: remain viable”. Moreover, the “ceftazidime concentrations to which P. aeruginosa is resistant” value in data set [1] (hypoxic cultures, 24 h, ceftazidime alone) was ≤ 1,000 μg/mL. For the same compound, the “toxicity / killing of P. aeruginosa cultures (in words)” value in data set [1] (oxic conditions, 24 h) is on record as “completely resistant”.
For the compound `NC[C@H]1O[C@H](O[C@H]2[C@H](O)[C@@H](O[C@H]3O[C@H](CO)[C@@H](O)[C@H](N)[C@H]3O)[C@H](N)C[C@@H]2N)[C@H](N)C[C@@H]1O` [tobramycin], in data set [1], the “capacity for synergy across drug classes” value is listed as “do not”. For the same compound, in [1], the “synergy of chlorate-antibiotic combination” value is “synergizing”. For the same compound, the “O2-dependence of efficacy (hypoxic compared to oxic)” value in [1] (setting [8]) is recorded as “substantially less toxic”. The “toxicity / killing of P. aeruginosa cultures (in words)” value in data set [1] (anoxic conditions, 24 h) is listed as “some toxicity”; in [1] (oxic conditions, 24 h) it was “most effective”; in [1] (oxic conditions, 24 h, listed as Tobramycin), “below our detection limit”.
As to `O=C(O)c1cn(C2CC2)c2cc(N3CCNCC3)c(F)cc2c1=O` [ciprofloxacin], the “killing / susceptibility of aggregate biofilms (in words)” value with RPA aggregate biofilms is “susceptible to ciprofloxacin but show greater survival than planktonic cells”. The “susceptibility of planktonic cultures (in words)” value in data set [5] (anoxic (anaerobic glove box)) is listed as “highly susceptible”; in data set [5] (oxic (static, ambient oxygen)), “highly susceptible”. Besides, in data set [1], the “O2-dependence of efficacy (hypoxic compared to oxic)” value is “substantially less toxic”. For the same compound, in [1] (setting [10]), the log killing is about 1.5 log. In data set [1] (hypoxic conditions, 24 h), the “synergy of chlorate-antibiotic combination” value is on record as “synergizing”.
